Results taken from ChEMBL document CHEMBL1128255, “Synthesis of 11 beta-[18F]fluoro-5 alpha-dihydrotestosterone and 11 beta-[18F]fluoro-19-nor-5 alpha-dihydrotestosterone: preparation via halofluorination-reduction, receptor binding, and tissue distribution” (J Med Chem, 1995).

Legend:
[1] = %ID/g is percent injected dose per gram of tissue and in vivo distribution of compound obtained after 2 hour (blocked) in prostate (d); assay type: ADME, organism-based, Prostate gland
[2] = %ID/g is percent injected dose per gram of tissue and in vivo distribution of compound obtained after 1 hour in spleen; assay type: ADME, organism-based
[3] = %ID/g is percent injected dose per gram of tissue and in vivo distribution of compound obtained after 2 hour (blocked) in liver; assay type: ADME, organism-based
[4] = %ID/g is percent injected dose per gram of tissue and in vivo distribution of compound obtained after 2 hour in fat; assay type: ADME, organism-based, Adipose tissue
[5] = %ID/g is percent injected dose per gram of tissue and in vivo distribution of compound obtained after 4 hour in prostate (d)/biood; assay type: ADME, organism-based, Prostate gland
[6] = %ID/g is percent injected dose per gram of tissue and in vivo distribution of compound obtained after 2 hour in spleen; assay type: ADME, organism-based
[7] = %ID/g is percent injected dose per gram of tissue and in vivo distribution of compound obtained after 2 hour in lung; assay type: ADME, organism-based
[8] = %ID/g is percent injected dose per gram of tissue and in vivo distribution of compound obtained after 1 hour in bone; assay type: ADME, organism-based, Bone element
[9] = %ID/g is percent injected dose per gram of tissue and in vivo distribution of compound obtained after 2 hour in muscle; assay type: ADME, organism-based
[10] = %ID/g is percent injected dose per gram of tissue and in vivo distribution of compound obtained after 2 hour (low) in liver; assay type: ADME, organism-based
[11] = %ID/g is percent injected dose per gram of tissue and in vivo distribution of compound obtained after 1 hour in kidney; assay type: ADME, organism-based
[12] = %ID/g is percent injected dose per gram of tissue and in vivo distribution of compound obtained after 2 hour (blocked) in spleen; assay type: ADME, organism-based
[13] = %ID/g is percent injected dose per gram of tissue and in vivo distribution of compound obtained after 4 hour in kidney; assay type: ADME, organism-based
[14] = %ID/g is percent injected dose per gram of tissue and in vivo distribution of compound obtained after 4 hour in lung; assay type: ADME, organism-based
[15] = %ID/g is percent injected dose per gram of tissue and in vivo distribution of compound obtained after 2 hour in prostate (d)/muscle; assay type: ADME, organism-based
[16] = %ID/g is percent injected dose per gram of tissue and in vivo distribution of compound obtained after 1 hour in prostate (d)/biood; assay type: ADME, organism-based, Prostate gland; settings: other tissue
[17] = %ID/g is percent injected dose per gram of tissue and in vivo distribution of compound obtained after 2 hr in kidney; assay type: ADME, organism-based
[18] = %ID/g is percent injected dose per gram of tissue and in vivo distribution of compound obtained after 2 hour in liver; assay type: ADME, organism-based
[19] = %ID/g is percent injected dose per gram of tissue and in vivo distribution of compound obtained after 2 hour (low) in kidney; assay type: ADME, organism-based
[20] = %ID/g is percent injected dose per gram of tissue and in vivo distribution of compound obtained after 4 hour in liver; assay type: ADME, organism-based
[21] = target: T1, Androgen receptor (Rattus norvegicus) (UniProt P15207)
T1 sequence (whole entry): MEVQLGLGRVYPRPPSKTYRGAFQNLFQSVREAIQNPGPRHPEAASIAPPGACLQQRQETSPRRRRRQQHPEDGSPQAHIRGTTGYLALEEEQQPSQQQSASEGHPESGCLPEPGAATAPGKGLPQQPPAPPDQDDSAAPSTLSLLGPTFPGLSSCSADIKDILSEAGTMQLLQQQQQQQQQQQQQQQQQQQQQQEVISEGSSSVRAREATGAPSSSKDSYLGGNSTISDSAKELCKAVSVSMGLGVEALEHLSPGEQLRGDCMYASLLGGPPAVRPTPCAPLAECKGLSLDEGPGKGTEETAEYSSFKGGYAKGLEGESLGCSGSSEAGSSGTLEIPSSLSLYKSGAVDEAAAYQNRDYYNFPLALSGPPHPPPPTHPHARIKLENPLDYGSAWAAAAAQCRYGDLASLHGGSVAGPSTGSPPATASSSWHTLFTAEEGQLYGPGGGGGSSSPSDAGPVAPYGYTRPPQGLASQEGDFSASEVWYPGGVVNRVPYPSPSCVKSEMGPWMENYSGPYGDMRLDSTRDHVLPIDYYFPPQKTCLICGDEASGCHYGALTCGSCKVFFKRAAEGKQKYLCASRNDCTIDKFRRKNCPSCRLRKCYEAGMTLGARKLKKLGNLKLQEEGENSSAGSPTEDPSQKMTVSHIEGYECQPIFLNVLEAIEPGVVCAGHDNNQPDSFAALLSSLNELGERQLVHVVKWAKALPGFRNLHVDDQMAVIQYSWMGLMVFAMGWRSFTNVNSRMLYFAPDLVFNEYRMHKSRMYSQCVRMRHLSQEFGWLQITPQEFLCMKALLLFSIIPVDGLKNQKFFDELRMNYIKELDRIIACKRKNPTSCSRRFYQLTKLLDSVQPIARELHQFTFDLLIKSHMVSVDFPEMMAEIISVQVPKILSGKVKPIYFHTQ
Description: Binding selectivity index (BSI) as ratio of RBA for androgen receptor to non-specific binding of R1881

[22] = %ID/g is percent injected dose per gram of tissue and in vivo distribution of compound obtained after 2 hour (blocked)i n prostate (d)/biood; assay type: ADME, organism-based, Prostate gland
[23] = %ID/g is percent injected dose per gram of tissue and in vivo distribution of compound obtained after 2 hour (low) in bladder; assay type: ADME, organism-based, Urinary bladder
[24] = %ID/g is percent injected dose per gram of tissue and in vivo distribution of compound obtained after 2 hour (low) in prostate (d)/muscle; assay type: ADME, organism-based
[25] = %ID/g is percent injected dose per gram of tissue and in vivo distribution of compound obtained after 2 hour (blocked) in prostate (v); assay type: ADME, organism-based, Prostate gland
[26] = %ID/g is percent injected dose per gram of tissue and in vivo distribution of compound obtained after 2 hour in bone; assay type: ADME, organism-based, Bone element
[27] = %ID/g is percent injected dose per gram of tissue and in vivo distribution of compound obtained after 2 hour in prostate (v)/blood; assay type: ADME, organism-based

| Compound | ID/g [1] [%] | ID/g [2] [%] | ID/g [3] [%] | ID/g [4] [%] | ID/g [5] [%] | ID/g [6] [%] | ID/g [7] [%] | ID/g [8] [%] | ID/g [9] [%] | ID/g [10] [%] | ID/g [11] [%] | ID/g [12] [%] | ID/g [13] [%] | ID/g [14] [%] | ID/g [15] [%] | ID/g [16] [%] | ID/g [17] [%] | ID/g [18] [%] | ID/g [19] [%] | ID/g [20] [%] | other results |
| --- | --- | --- | --- | --- | --- | --- | --- | --- | --- | --- | --- | --- | --- | --- | --- | --- | --- | --- | --- | --- | --- |
| C[C@]12CCC(=O)C[C@@H]1CC[C@@H]1[C@@H]2[C@@H](F)C[C@]2(C)[C@@H](O)CC[C@@H]12 | 0.074 | 0.048 | 0.468 | 0.024 | 10.827 | 0.03 | 0.069 | 0.064 | 0.038 | 0.228 | 0.417 | 0.026 | 0.155 | 0.035 | 10.141 | 5.16 | 0.229 | 0.451 | 0.145 | 0.415 | BSI [21]: 42.8; ID/g [22]: 1.465%; ID/g [23]: 0.263%; ID/g [24]: 9.78%; ID/g [25]: 0.069%; ID/g [26]: 0.061%; ID/g [27]: 10.058% |
| C[C@]12C[C@H](F)[C@H]3[C@@H](CC[C@H]4CC(=O)CC[C@@H]43)[C@@H]1CC[C@@H]2O | 0.048 | 0.061 | 1.189 | 0.041 | 2.682 | 0.036 | 0.058 | 0.068 | 0.035 | 1.045 | 0.458 | 0.032 | 0.201 | 0.046 | 3.882 | 2.531 | 0.276 | 0.992 | 0.251 | 0.863 | BSI [21]: 91.8; ID/g [22]: 0.815%; ID/g [23]: 0.686%; ID/g [24]: 3.83%; ID/g [25]: 0.054%; ID/g [26]: 0.077%; ID/g [27]: 2.605% |
